Measurements as given in patent US9399644B2, “[1,3] dioxolo [4,5-G] quinoline-6(5H)thione derivatives as inhibitors of the late SV40 factor (LSF) for use in treating cancer” (TRUSTEES OF BOSTON UNIVERSITY, priority 2011, dated 2016).

Tests used:
LSF = target: T1, LSF (Homo sapiens, UniProt Q12800); experiment: LSF-dependent reporter assay (dual luciferase); assay type: cell-based; settings: for LSF inhibition (result in words): NIH 3T3 cells transfected with LSF expression vector and LSF-driven firefly luciferase reporter, FIGS. 5-7
T1 construct: expressed in transfected cells; host or cells: NIH 3T3 cells
T1 sequence (Q12800 1-502): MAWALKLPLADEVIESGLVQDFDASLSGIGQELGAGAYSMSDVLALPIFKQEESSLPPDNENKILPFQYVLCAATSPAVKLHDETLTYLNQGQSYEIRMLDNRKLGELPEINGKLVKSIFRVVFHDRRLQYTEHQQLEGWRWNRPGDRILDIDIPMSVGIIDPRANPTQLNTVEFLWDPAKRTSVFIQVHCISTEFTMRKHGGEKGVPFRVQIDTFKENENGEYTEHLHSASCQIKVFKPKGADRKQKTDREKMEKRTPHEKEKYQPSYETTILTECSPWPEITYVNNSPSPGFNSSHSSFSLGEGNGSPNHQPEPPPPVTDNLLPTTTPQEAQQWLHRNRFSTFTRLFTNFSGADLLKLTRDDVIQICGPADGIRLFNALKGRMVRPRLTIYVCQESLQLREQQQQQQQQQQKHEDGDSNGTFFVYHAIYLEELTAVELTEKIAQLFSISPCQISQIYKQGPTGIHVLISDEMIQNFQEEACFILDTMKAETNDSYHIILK
Protocol: NIH 3T3 cells were transfected with the expression construct pEF1α-LSF, an LSF expression vector^1,2; the reporter construct pGL3B-WT4E1b, a firefly luciferase reporter vector driven by LSF^3; phRL-TK, a control renilla luciferase reporter vector; and pEFGP, essentially as previously described^3. Five hours after transfection, either vehicle (DMSO) or compounds (VI, I and II, IV and V) were added (FIG. 7, FIG. 5 and FIG. 6, respectively), keeping DMSO at 0.5%. Cell extracts were harvested 36 hours post-transfection and firefly and renilla luciferase activities measured via a dual luciferase assay (Promega). Five μl of extract was mixed with 30 μl of luciferase assay reagent (Promega), and luminescence measured for 10 seconds using a 20/20n luminometer (Turner Biosystems). Subsequently, 30 μl of Stop & Glo reagent (Promega) was added, and luminescence also measured for 10 seconds. LSF transactivation activity is given as relative luciferase activity, the ratio of firefly to renilla activities, and normalized to the relative luciferase activity in the presence of vehicle alone. Data for this assay are shown in graphically in FIGS. 5-7.

[1] = test system: hepatocellular carcinoma (HCC); settings: single treatment; cited from earlier work

| Structure (SMILES) | LSF inhibition (result in words) (LSF) | also measured |
| --- | --- | --- |
| CNC(=O)c1cc(Oc2ccc(NC(=O)Nc3ccc(Cl)c(C(F)(F)F)c3)cc2)ccn1 [sorafenib] | – | increase of survival [1]: 2-3 months |
| CCOc1ccccc1[C@H]1CC(=S)Nc2cc3c(cc21)OCO3 [Compound II] | exhibit properties as LSF inhibitors | – |
| CCOc1ccccc1[C@@H]1CC(=S)Nc2cc3c(cc21)OCO3 [Compound I] | exhibit properties as LSF inhibitors | – |
| CCOc1ccccc1-c1cc(=S)[nH]c2cc3c(cc12)OCO3 [Compound III, 8-(2-ethoxyphenyl)-[1,3]dioxolo[4,5-g]quinolin-6(5H)-thione] | exhibit properties as LSF inhibitors | – |

More lines, main results first:

| LSF inhibition (result in words) (LSF) | Structure (SMILES) | also measured |
| --- | --- | --- |
| exhibit properties as LSF inhibitors | CCOc1ccccc1[C@H]1Cc2nncn2-c2cc3c(cc21)OCO3 [Compound V] | – |
| particularly strong LSF inhibitors | CCOc1ccccc1C1CC(=S)Nc2cc3c(cc21)OCO3 (racemic) [racemic mixture of compounds I and II, 8-(2-ethoxyphenyl)-7,8-dihydro-[1,3]dioxolo[4,5-g]quinoline-6(5H)-thione] | effectiveness as LSF inhibitor compared with the racemic mixture of compounds IV and V (FIG. 6) and Compound VI (FIG. 7) (LSF; FIG. 5 versus FIG. 6 and FIG. 7): about 10 times; rank among LSF inhibitors observed by the applicants (LSF; experiments thus far performed by the applicants): strongest LSF inhibitor so far observed |
| exhibit properties as LSF inhibitors | CCOc1ccccc1[C@@H]1Cc2nncn2-c2cc3c(cc21)OCO3 [IV] | – |
